Source: patent publication US20170252298A1, “Performance-Enhancing Nasal Irrigation” (Backed-by-Science, Inc., priority 2014, published 2017)
Values joined by “and” are separate entries in the source; they are usually repeats but may differ in a detail not shown here. Equal entries are not always repeated.

Tested on: nasal cilia
Assay: nasal ciliary beat frequency (CBF), whole field analysis over time
Format: cell-based
Parameters: Mean CBF (WFA): unit: Hz
Experimental: The ATP concentration inside the cell is typically 1-10 millimolar (mM). We started with an ATP concentration of 1 mg/ml based on literature data and from testing done by Dr. James Palmer at University of Pennsylvania on ATP concentration for increasing nasal ciliary beat frequency. […] 1 mg/ml from the below charts=1 mg/ml=1 gram per liter=1/507 g/mol=2 mM. Most intracellular ATP concentrations in animals fall within the range of 0.5-10 mM. [table]

[1] = Plate 1, elapsed 0:00:00, treatment of plate not stated
[2] = Plate 2, elapsed 0:00:00, ATP 1 mg/ml
[3] = Plate 2, elapsed 0:00:10, ATP 1 mg/ml
[4] = Plate 2, elapsed 0:00:30, ATP 1 mg/ml
[5] = Plate 2, elapsed 0:00:40, ATP 1 mg/ml
[6] = Plate 2, elapsed 0:00:50, ATP 1 mg/ml
[7] = Plate 2, elapsed 0:01:00, ATP 1 mg/ml
[8] = Plate 2, elapsed 0:01:10, ATP 1 mg/ml
[9] = Plate 2, elapsed 0:01:20, ATP 1 mg/ml
[10] = Plate 2, elapsed 0:01:30, ATP 1 mg/ml
[11] = Plate 2, elapsed 0:01:40, ATP 1 mg/ml
[12] = Plate 2, elapsed 0:01:50, ATP 1 mg/ml
[13] = Plate 2, elapsed 0:02:00, ATP 1 mg/ml
[14] = Plate 2, elapsed 0:02:10, ATP 1 mg/ml
[15] = Plate 2, elapsed 0:02:20, ATP 1 mg/ml
[16] = Plate 2, elapsed 0:02:30, ATP 1 mg/ml
[17] = Plate 2, elapsed 0:02:40, ATP 1 mg/ml
[18] = Plate 2, elapsed 0:02:50, ATP 1 mg/ml
[19] = Plate 2, elapsed 0:03:00, ATP 1 mg/ml
[20] = Plate 2, elapsed 0:03:10, ATP 1 mg/ml
[21] = Plate 2, elapsed 0:03:20, ATP 1 mg/ml
[22] = Plate 2, elapsed 0:03:30, ATP 1 mg/ml
[23] = Plate 2, elapsed 0:03:40, ATP 1 mg/ml
[24] = Plate 2, elapsed 0:03:50, ATP 1 mg/ml
[25] = Plate 2, elapsed 0:04:00, ATP 1 mg/ml
[26] = Plate 2, elapsed 0:04:10, ATP 1 mg/ml
[27] = Plate 2, elapsed 0:04:20, ATP 1 mg/ml
[28] = Plate 2, elapsed 0:04:30, ATP 1 mg/ml
[29] = Plate 2, elapsed 0:04:40, ATP 1 mg/ml
[30] = Plate 2, elapsed 0:04:50, ATP 1 mg/ml
[31] = Plate 2, elapsed 0:05:00, ATP 1 mg/ml
[32] = Plate 2, elapsed 0:05:10, ATP 1 mg/ml
[33] = Plate 2, elapsed 0:05:20, ATP 1 mg/ml
[34] = Plate 2, elapsed 0:05:30, ATP 1 mg/ml
[35] = Plate 2, elapsed 0:05:40, ATP 1 mg/ml
[36] = Plate 2, elapsed 0:05:50, ATP 1 mg/ml
[37] = Plate 2, elapsed 0:06:00, ATP 1 mg/ml
[38] = Plate 2, elapsed 0:06:10, ATP 1 mg/ml
[39] = Plate 2, elapsed 0:06:20, ATP 1 mg/ml
[40] = Plate 2, elapsed 0:06:30, ATP 1 mg/ml
[41] = Plate 2, elapsed 0:06:40, ATP 1 mg/ml
[42] = Plate 2, elapsed 0:06:50, ATP 1 mg/ml
[43] = Plate 2, elapsed 0:07:00, ATP 1 mg/ml
[44] = Plate 2, elapsed 0:07:10, ATP 1 mg/ml
[45] = Plate 2, elapsed 0:07:20, ATP 1 mg/ml
[46] = Plate 2, elapsed 0:07:30, ATP 1 mg/ml
[47] = Plate 2, elapsed 0:07:40, ATP 1 mg/ml
[48] = Plate 2, elapsed 0:07:50, ATP 1 mg/ml
[49] = Plate 2, elapsed 0:08:00, ATP 1 mg/ml

Nc1ncnc2c1ncn2[C@@H]1O[C@H](COP(=O)(O)OP(=O)(O)OP(=O)(O)O)[C@@H](O)[C@H]1O [ATP, adenosine triphosphate]
Active Area [1]: 82.86% and 60.42% and 53.54%
Mean CBF (WFA) [1]: 6.75 and 6.14 and 5.59
Active Area [2]: 22.19%
Mean CBF (WFA) [2]: 8.06
Active Area [3]: 44.1%
Mean CBF (WFA) [3]: 7.41
Active Area [4]: 49.49%
Mean CBF (WFA) [4]: 7.42
Active Area [5]: 49.6%
Mean CBF (WFA) [5]: 7.5
Active Area [6]: 48.61%
Mean CBF (WFA) [6]: 7.55
Active Area [7]: 42.47%
Mean CBF (WFA) [7]: 7.66
Active Area [8]: 43.64%
Mean CBF (WFA) [8]: 7.75
Active Area [9]: 45.62%
Mean CBF (WFA) [9]: 7.82
Active Area [10]: 36.91%
Mean CBF (WFA) [10]: 7.92
Active Area [11]: 40.43%
Mean CBF (WFA) [11]: 7.99
Active Area [12]: 43.13%
Mean CBF (WFA) [12]: 7.95
Active Area [13]: 41.96%
Mean CBF (WFA) [13]: 8.01
Active Area [14]: 43.36%
Mean CBF (WFA) [14]: 8
Active Area [15]: 42.03%
Mean CBF (WFA) [15]: 8.03
Active Area [16]: 15.64%
Mean CBF (WFA) [16]: 7.96
Active Area [17]: 37.46%
Mean CBF (WFA) [17]: 8.02
Active Area [18]: 40.07%
Mean CBF (WFA) [18]: 8.02
Active Area [19]: 38.29%
Mean CBF (WFA) [19]: 8.08
Active Area [20]: 38.85%
Mean CBF (WFA) [20]: 8.1
Active Area [21]: 37.75%
Mean CBF (WFA) [21]: 8.09
Active Area [22]: 36.48%
Mean CBF (WFA) [22]: 8.07
Active Area [23]: 37.41%
Mean CBF (WFA) [23]: 8.07
Active Area [24]: 36.73%
Mean CBF (WFA) [24]: 8.12
Active Area [25]: 37.22%
Mean CBF (WFA) [25]: 8.11
Active Area [26]: 38.13%
Mean CBF (WFA) [26]: 8.09
Active Area [27]: 36.96%
Mean CBF (WFA) [27]: 8.12
Active Area [28]: 36.02%
Mean CBF (WFA) [28]: 8.12
Active Area [29]: 36.21%
Mean CBF (WFA) [29]: 8.06
Active Area [30]: 34.77%
Mean CBF (WFA) [30]: 8.05
Active Area [31]: 37.11%
Mean CBF (WFA) [31]: 8.12
Active Area [32]: 34.86%
Mean CBF (WFA) [32]: 8.08
Active Area [33]: 35.53%
Mean CBF (WFA) [33]: 8.09
Active Area [34]: 36.15%
Mean CBF (WFA) [34]: 8.22
Active Area [35]: 38.41%
Mean CBF (WFA) [35]: 8.15
Active Area [36]: 38.05%
Mean CBF (WFA) [36]: 8.13
Active Area [37]: 39.37%
Mean CBF (WFA) [37]: 8.17
Active Area [38]: 39.15%
Mean CBF (WFA) [38]: 8.14
Active Area [39]: 37.86%
Mean CBF (WFA) [39]: 8.15
Active Area [40]: 31.72%
Mean CBF (WFA) [40]: 8.11
Active Area [41]: 35.94%
Mean CBF (WFA) [41]: 8.21
Active Area [42]: 36.95%
Mean CBF (WFA) [42]: 8.22
Active Area [43]: 28.86%
Mean CBF (WFA) [43]: 8.23
Active Area [44]: 36.92%
Mean CBF (WFA) [44]: 8.2
Active Area [45]: 38.3%
Mean CBF (WFA) [45]: 8.24
Active Area [46]: 37.18%
Mean CBF (WFA) [46]: 8.25
Active Area [47]: 36.54%
Mean CBF (WFA) [47]: 8.23
Active Area [48]: 35.67%
Mean CBF (WFA) [48]: 8.22
Active Area [49]: 37.37%
Mean CBF (WFA) [49]: 8.17
